From US20260098054A1, “COMPOSITIONS AND METHODS FOR CONSTRUCTING CONJUGATES” (priority 2022, published 2026)
Non-standard residues stand in square brackets, D forms with d. Pen = CC(C)(S)[C@H](N)C(=O)O

How the values were obtained:
U87-MG cells = assay: In vitro cytotoxicity assay (CCK-8) in U87-MG cells; conditions: U87-MG (high αvβ3 integrin), 48 h incubation, fold of free DM1 activity
Protocol: (§1) Cells were plated in 96-well microplates at a density of 5×10^4 cells/well for 24 h for attachment, 90 μl of DMEM with 10% FBS and 100 U/mL P/Swas added to each well. PDCs 1-6 were first dissolved in DMSO respectively, at a concentration of 10 mM, followed by serial dilution in culture medium to achieve different concentrations as specified. For U87-MG cells, the concentration of compounds administered ranged from 1.37 to 27000 nM. While for HEK-293T cells, the concentration of compounds administered ranged from 0.03 to 1000 nM. The cells treated with the compounds were then incubated for 48 h. 10 μl of CCK-8 solution was then added to each well and incubated for 30 min. Absorbance was acquired at 450 nm using a spectrophotometer (Synergy HTX, Biotek). Three experiments were performed separately in triplicates and the data was processed using the GraphPad Prism (GraphPad Software, La Jolla, CA).
(§2) Next, the biological activities of these conjugates were evaluated.
Then, the in vitro antitumor efficacy of PDCs 1-6 was examined by CCK-8 assay (FIG. 5B). The IC50 of free DM1 and its conjugates were compared internally within the same cell line, to determine the potency of the six compounds.

[1] = Stability test of conjugates (checked by LCMS); format: physicochemical; conditions: 5% ACN in H2O or 5% ACN in PBS pH 7.4, 0.5 mM, room temperature or 37° C., LCMS after 24 h and 48 h
Protocol: FIGS. 5A-5C are line graphs of stability test and biological evaluations of PDC 1-6. […] The compound was checked by LCMS after 24 h and 48 h.

HEK-293T cells = assay: In vitro cytotoxicity assay (CCK-8) in HEK-293T cells; conditions: for cytotoxicity in words (ranking among the six compounds): HEK-293T, CCK-8, PDCs 1-6
Protocol: as §1, §2
The peptide-drug conjugates were tested on the negative control cell line.

αvβ3 integrin = αvβ3 integrin (Homo sapiens, UniProt P05106+P06756); conditions: Kapp, et al., Sci. Rep. 2017; cited from earlier work
integrin αvβ3 = integrin αvβ3 (UniProt P06756 31-1048; P05106 27-788); assay: cell-based or functional assay
Chain of integrin αvβ3 (P06756 31-1048, chain 1 of 2): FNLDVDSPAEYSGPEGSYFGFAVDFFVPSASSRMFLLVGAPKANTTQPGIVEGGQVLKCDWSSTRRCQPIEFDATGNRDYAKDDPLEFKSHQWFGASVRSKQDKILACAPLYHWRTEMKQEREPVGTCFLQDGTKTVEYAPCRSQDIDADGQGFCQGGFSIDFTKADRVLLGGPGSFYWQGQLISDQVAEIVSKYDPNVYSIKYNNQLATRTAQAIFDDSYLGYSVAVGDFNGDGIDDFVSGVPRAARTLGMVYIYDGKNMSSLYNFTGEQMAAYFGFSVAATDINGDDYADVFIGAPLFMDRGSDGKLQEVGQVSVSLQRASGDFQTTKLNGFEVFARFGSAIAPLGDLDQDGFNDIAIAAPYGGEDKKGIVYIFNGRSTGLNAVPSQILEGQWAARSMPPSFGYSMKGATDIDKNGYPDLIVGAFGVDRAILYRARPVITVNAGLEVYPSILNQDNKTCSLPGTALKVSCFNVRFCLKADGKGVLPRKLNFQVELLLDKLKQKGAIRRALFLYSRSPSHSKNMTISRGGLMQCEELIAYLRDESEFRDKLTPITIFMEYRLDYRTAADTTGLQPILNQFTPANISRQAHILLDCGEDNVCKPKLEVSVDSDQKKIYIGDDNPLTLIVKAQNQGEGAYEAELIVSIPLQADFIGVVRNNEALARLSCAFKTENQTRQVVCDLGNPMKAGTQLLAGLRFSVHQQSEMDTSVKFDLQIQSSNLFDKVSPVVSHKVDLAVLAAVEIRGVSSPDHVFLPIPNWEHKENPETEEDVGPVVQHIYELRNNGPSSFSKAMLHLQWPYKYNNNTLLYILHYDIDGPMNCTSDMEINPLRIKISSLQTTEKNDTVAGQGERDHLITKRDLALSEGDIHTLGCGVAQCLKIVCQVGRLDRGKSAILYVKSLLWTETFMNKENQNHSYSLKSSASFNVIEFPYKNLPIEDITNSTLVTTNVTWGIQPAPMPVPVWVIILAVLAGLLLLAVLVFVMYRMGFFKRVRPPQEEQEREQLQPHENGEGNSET
Chain of integrin αvβ3 (P05106 27-788, chain 2 of 2): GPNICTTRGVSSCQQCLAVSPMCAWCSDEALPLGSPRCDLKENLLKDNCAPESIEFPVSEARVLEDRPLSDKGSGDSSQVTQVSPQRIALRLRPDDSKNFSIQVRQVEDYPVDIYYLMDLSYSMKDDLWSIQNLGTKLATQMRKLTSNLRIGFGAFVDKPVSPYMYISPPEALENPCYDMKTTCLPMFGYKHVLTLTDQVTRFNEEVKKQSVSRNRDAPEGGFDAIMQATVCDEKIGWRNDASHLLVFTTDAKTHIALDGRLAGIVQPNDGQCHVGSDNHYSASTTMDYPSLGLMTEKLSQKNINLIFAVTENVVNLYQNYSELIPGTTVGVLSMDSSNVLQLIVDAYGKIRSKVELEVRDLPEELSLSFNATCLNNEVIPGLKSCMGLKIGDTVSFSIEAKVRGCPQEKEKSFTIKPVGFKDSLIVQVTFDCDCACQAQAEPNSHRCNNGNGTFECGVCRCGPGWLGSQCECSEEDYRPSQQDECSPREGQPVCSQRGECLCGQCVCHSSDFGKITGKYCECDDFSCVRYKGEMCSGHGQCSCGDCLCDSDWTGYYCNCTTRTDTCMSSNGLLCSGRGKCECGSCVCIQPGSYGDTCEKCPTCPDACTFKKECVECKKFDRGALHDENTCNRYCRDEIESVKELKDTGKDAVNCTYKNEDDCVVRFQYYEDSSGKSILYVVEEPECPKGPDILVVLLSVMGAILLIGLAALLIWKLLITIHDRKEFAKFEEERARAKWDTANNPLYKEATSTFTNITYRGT

Chain of αvβ3 integrin (P06756 31-1048): as the sequence (P06756 31-1048, chain 1 of 2) above
Chain of αvβ3 integrin (P05106 27-788): as the sequence (P05106 27-788, chain 2 of 2) above

COc1cc2cc(c1Cl)N(C)C(=O)C[C@H](OC(=O)[C@H](C)N(C)C(=O)CCSc1c3ccccc3cn1CCCC[C@@H]1NC(=O)[C@@H](Cc3ccccc3)NC(=O)[C@H](CC(=O)O)NC(=O)CNC(=O)[C@H](CCCNC(=N)N)NC1=O)[C@]1(C)O[C@H]1[C@H](C)[C@@H]1C[C@@](O)(NC(=O)O1)[C@H](OC)/C=C/C=C(\C)C2 [PDC-1, OPA-c [RGDfK]-DM1]
cytotoxicity compared to free DM1 (IC50 compared within the same cell line) (U87-MG cells): 0.85 fold

COc1cc2cc(c1Cl)N(C)C(=O)C[C@H](OC(=O)[C@H](C)N(C)C(=O)CCSSCCn1cc3ccccc3c1SC(C)(C)[C@@H]1NC(=O)[C@@H](Cc3ccccc3)NC(=O)[C@H](CC(=O)O)NC(=O)CNC(=O)[C@H](CCCNC(=N)N)NC1=O)[C@]1(C)O[C@H]1[C@H](C)[C@@H]1C[C@@](O)(NC(=O)O1)[C@H](OC)/C=C/C=C(\C)C2 [PDC-3]
cytotoxicity compared to free DM1 (IC50 compared within the same cell line) (U87-MG cells): 5.95 fold
stability compared to PDC-1 (FIG. 5A) [1]: improved stability
cytotoxicity as fold of the activity of DM1 (HEK-293T cells; HEK-293T (low αvβ3 integrin, negative control), 48 h incubation, CCK-8): 0.31 fold
cytotoxicity in words (ranking among the six compounds) (HEK-293T cells): relatively better activity among the six compounds

COc1cc2cc(c1Cl)N(C)C(=O)C[C@H](OC(=O)[C@H](C)N(C)C(=O)CCSc1c3ccccc3cn1CCCC[C@@H]1NC(=O)[C@@H](Cc3ccccc3)NC(=O)[C@H](CCC(=O)O)NC(=O)CNC(=O)[C@H](CCCNC(=N)N)NC1=O)[C@]1(C)O[C@H]1[C@H](C)[C@@H]1C[C@@](O)(NC(=O)O1)[C@H](OC)/C=C/C=C(\C)C2 [PDC-5]
cytotoxicity compared to free DM1 (IC50 compared within the same cell line) (U87-MG cells): 0.49 fold

COc1cc2cc(c1Cl)N(C)C(=O)C[C@H](OC(=O)[C@H](C)N(C)C(=O)CCSSCCn1cc3ccccc3c1SC(C)(C)[C@@H]1NC(=O)[C@@H](Cc3ccccc3)NC(=O)[C@H](CCC(=O)O)NC(=O)CNC(=O)[C@H](CCCNC(=N)N)NC1=O)[C@]1(C)O[C@H]1[C@H](C)[C@@H]1C[C@@](O)(NC(=O)O1)[C@H](OC)/C=C/C=C(\C)C2 [PDC-6]
cytotoxicity compared to free DM1 (IC50 compared within the same cell line) (U87-MG cells): 0.48 fold
cytotoxicity in words (ranking among the six compounds) (HEK-293T cells): relatively better activity among the six compounds

c [c [RGDfK]]
increase of binding affinity compared to the linear RGD tripeptide (αvβ3 integrin): 39 fold

c [c [RGDfV]]
increase of binding affinity compared to the linear RGD tripeptide (αvβ3 integrin): 58 fold

cyclo(RGD[dF]K(Pen)) (not fully specified) [PDC-4]
cytotoxicity (CCK-8 assay) in U87-MG cells, fold against free DM1 (integrin αvβ3): 1.29 fold
cytotoxicity (CCK-8 assay) in the αvβ3-negative cell line HEK-293T, fold of the activity of DM1 (integrin αvβ3): 0.16 fold
